This data set is described as follows: excess molar enthalpy (molar enthalpy of mixing); xn = mol fraction of the nth substance listed. Conditions: 298.15 K, 101 kPa, Liquid, Calvet calorimetry.

± gives the expanded uncertainty stated by the source.

Regarding `CCn1cc[n+](C)c1.COP(=O)([O-])OC` [1-ethyl-3-methylimidazolium dimethylphosphate] + CCO, the excess molar enthalpy by setting is: (x1 = 0.1) -0.311 ± 0.00406 kcal/mol; (x1 = 0.2) -0.5184 ± 0.00478 kcal/mol; (x1 = 0.4) -0.6726 ± 0.0055 kcal/mol; (x1 = 0.7) -0.4333 ± 0.00406 kcal/mol.

Regarding `CCn1cc[n+](C)c1.COP(=O)([O-])OC` [1-ethyl-3-methylimidazolium dimethylphosphate] + CO, the excess molar enthalpy (x1 = 0.2) was -0.6728 ± 0.0055 kcal/mol, the excess molar enthalpy (x1 = 0.4) was -0.8537 ± 0.00669 kcal/mol and the excess molar enthalpy (x1 = 0.7) was -0.5566 ± 0.00478 kcal/mol.

Consider `CCn1cc[n+](C)c1.COP(=O)([O-])OC` [1-ethyl-3-methylimidazolium dimethylphosphate] + O, for which the excess molar enthalpy is, setting by setting: (x1 = 0.1) -0.881 ± 0.00813 kcal/mol; (x1 = 0.2) -1.3 ± 0.0105 kcal/mol; (x1 = 0.4) -1.463 ± 0.0115 kcal/mol; (x1 = 0.5) -1.381 ± 0.011 kcal/mol; (x1 = 0.7) -1.008 ± 0.00813 kcal/mol.

`OCCOCCO` [diethylene glycol] + O: the excess molar enthalpy reads like this: (x1 = 0.2) -0.291 ± 0.00335 kcal/mol; (x1 = 0.401) -0.291 ± 0.00335 kcal/mol; (x1 = 0.501) -0.275 ± 0.00311 kcal/mol; (x1 = 0.804) -0.111 ± 0.00263 kcal/mol.
